How the values were obtained:
[1] = system: synthetic mixed culture resembling a skin microbiome (core microbiome model, strain mix ratio 1); test: Anaerobic cultivation of core skin microbiome model (ratio 1) with test compound; type: cell-based; conditions: ratio 1, compound added at T=0, T=22 h
Experimental: Preculture cultivation and ratio mixing is carried out as in example 1. Anaerobic cultivation is done using a BioLector [[…]-labs; Arnold-Sommerfeld-Ring 2, 52499 Baesweiler] small scale test system with MTP-48-BOH 1 plates and the anaerobic module including an external mass flow controller for nitrogen (N2). 100 μl of strain mix, according to the ratios in table 2 are added to 1 ml BHI media resulting in a starting OD600 of 0.091. Cultivation is done at 37° C., a shaking frequency of 600 rpm and under nitrogen flushing for 22 h until the process is stopped. Preculture cultivation, ratio mixing and cultivation is carried out as in example 1 or 2. Test compounds are added to the cultures at T=0, 4, 8, 12, 16, or 24 h. At the end of the cultivation samples are taken and processed as in example 1 or 2 and results are compared to non-treated cultures to evaluate the effect of the test compounds on the core microbiome model.

[2] = system: synthetic mixed culture resembling a skin microbiome (core microbiome model, strain mix ratio 1); test: Aerobic cultivation of core skin microbiome model (ratio 1) with test compound, 16S rRNA sequencing; type: cell-based; conditions: ratio 1, compound added at T=0, T=28 h
Experimental: Individual bacterial strains are inoculated from cryocultures to initiate preculture growth. BHI Media (110493; Merck KGaA, 64293 Darmstadt) or DSMZ media 92 or DSMZ media 535 media according to the recommendations of the German Collection of Microorganisms and Cell Cultures GmbH are used for preculture cultivation. At the end of cultivation strains are diluted to result in an optical density of OD600=1 using BHI media. These single strain cultures are mixed in defined strain ratios depending on their growth properties. Cultivation is carried out using a BioLector [[…]-labs; Arnold-Sommerfeld-Ring 2, 52499 Baesweiler] small scale test system with MTP-48-BOH 1 plates. 100 μl of strain mix, according to the ratios in table 2 are added to 1 ml BHI media in resulting in a starting OD600 of 0.091. Cultivation is done at 37° C., a shaking frequency of 600 rpm and relative humidity of 85% for 28 h until the process is stopped. At the end of cultivation OD600 is determined, and the remaining culture is centrifuged at 4° C., 5000 rpm and 5 min in an Eppendorf table centrifuge. The supernatant is discarded, and the pellet is stored at -20° C. Genomic DNA is extracted from these samples using the DNeasy PowerSoil Pro Kit [Qiagen GmbH, QIAGEN Strasse 1, 40724 Hilden]. DNA samples are analyzed by LGC Genomics GmbH [Ostendstraße 25, 12459 Berlin] using primer pair 341 F, Seq. ID NO 1, and […], Seq. ID NO 2, or library preparation and […] MiSeq for sequencing. Results are processed by LGC Genomics GmbH and mapped to an individual reference database containing the sequences of the strains which are present in the individual model. Preculture cultivation, ratio mixing and cultivation is carried out as in example 1 or 2. Test compounds are added to the cultures at T=0, 4, 8, 12, 16, or 24 h. At the end of the cultivation samples are taken and processed as in example 1 or 2 and results are compared to non-treated cultures to evaluate the effect of the test compounds on the core microbiome model.

Compound	general trends compared with aerobic conditions [1]	relative abundance of S. aureus ([2]; vs non-treated culture)	relative abundance of S. epidermidis ([2]; vs non-treated culture)	relative abundance of S. hominis ([2]; vs non-treated culture)	shift compared to the baseline composition ([2]; vs non-treated culture)	abundance of all other species ([2]; species other than S. warneri (and S. capitis for the lysate))	abundance of S. warneri ([2]; vs non-treated culture)	microbial diversity ([2]; vs non-treated culture)
CN(CC(=O)O)C(=N)N [Creatine]	remain the same	slightly decreased	slightly increased	slightly increased	minor shift	–	–	–
sodium lauryl ether sulfate	remain the same	–	–	–	drastic microbial community shifts	at the expense of all other Staphylococcus species	significantly increased abundance	remarked loss of diversity

From patent publication US20240035063A1, “SYNTHETIC MIXED CULTURE RESEMBLING A SKIN MICROBIOME” (Evonik Operations GmbH, priority 2020, published 2024)
